# Results published in patent US11427561B2, “IRAK4 inhibiting agents” (BIOGEN MA INC., priority 2016, dated 2022).
# Counter-ions that a name gives are not always drawn.
# Key:
# A549 cells = assay: Cell-based assay: IL-6 ELISA quantification in A549 cells stimulated with human IL-1beta; details: 2 ng/ml human IL-1beta overnight
# Procedure: Cell-based Assay: The cell-based assays is based on IL-6 ELISA quantification. Briefly, A549 cells are cultured in DMEM with 10% FBS medium. When cells reach 80% confluence they are trypsin treated and seeded 180 ul/well in 96-well plate at 2.5×10^4 cells/well. Then, 20 ul of compound serial dilutions (starting at 10 uM, 10 points) are added to the cell plate; incubate for 30 min at 37 C and stimulated with 2 ng/ml human IL-1beta 37 C, 5% CO2 overnight. The next day 100 ul of cell supernatant per well are analyzed on a Human IL-6 Quantikine ELISA kit from R&D Systems.
# The compounds described herein were tested for in the above biochemical and cell-based assays.
# IRAK4 = IRAK4 (Homo sapiens (Human), UniProt Q9NWZ3); assay: IRAK-4 biochemical assay, AlphaScreen format (phosphorylation of a biotin labeled peptide); details: 1 nM IRAK4, 1.6 μM peptide, 1 mM ATP, 3.5 h at RT
# Procedure: Biochemical Assay: The biochemical assay is in a AlphaScreen format. The kinase reaction is based on the IRAK-4 phosphorylation of a biotin labeled peptide. The phosphopeptide is incubated with anti-phosphothreonine antibody as well as streptavidin- and protein A-coated beads. Binding of the protein-A coated beads to the antibody and the streptavidin beads to the peptide, leads to an energy transfer from one bead to the other, ultimately producing a luminescent/fluorescent signal.
# Generally, the kinase reaction is carried out at 1 nM IRAK4, 1.6 μM peptide, 1 mM ATP in reaction buffer 50 mM Hepes, 60 mM NaCl, 5 mM MgCl2, 0.25 mM MnCl2, 2 mM DTT, 0.01% BSA, 0.01% Tween-20) for 3.5 h at RT.
# The compounds described herein were tested for in the above biochemical assay.
# Chain of IRAK4 (Q9NWZ3 whole entry, species assumed): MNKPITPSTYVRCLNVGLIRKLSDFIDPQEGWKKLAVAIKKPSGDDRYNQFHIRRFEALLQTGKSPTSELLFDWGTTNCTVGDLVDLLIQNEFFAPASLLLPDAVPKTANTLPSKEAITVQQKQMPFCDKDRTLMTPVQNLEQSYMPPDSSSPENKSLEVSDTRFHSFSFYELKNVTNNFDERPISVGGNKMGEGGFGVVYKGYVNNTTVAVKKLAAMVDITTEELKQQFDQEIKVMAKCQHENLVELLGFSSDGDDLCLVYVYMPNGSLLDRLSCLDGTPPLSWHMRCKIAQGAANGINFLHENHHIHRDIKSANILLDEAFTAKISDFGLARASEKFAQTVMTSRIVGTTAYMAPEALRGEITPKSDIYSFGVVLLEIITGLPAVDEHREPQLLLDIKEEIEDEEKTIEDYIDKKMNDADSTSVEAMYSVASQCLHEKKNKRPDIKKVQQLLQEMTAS
SMILES,"EC50 (A549 cells; Homo sapiens, A549, A549 cells)",IC50 (IRAK4),EC50 (A549 cells; A549 cells)
"NC(c1cccc(-c2ccc3cnn(-c4cccc(CO)n4)c3c2)n1)C1CCC(O)C1 (single isomer, unassigned) [Compound 22, 3-(amino(6-(1-(6-(hydroxymethyl)pyridin-2-yl)-1H-indazol-6-yl)pyridin-2-yl)methyl)cyclopentanol-B]",–,≤ 100 nM,1000 to 10000 nM
"N[C@H](c1cccc(-c2ccc3cnn(-c4cccc(CO)n4)c3c2)n1)C1CC(CO)C1 (stereo partly drawn) [Compound 1, (S)-(6-(6-(6-(amino(3-(hydroxymethyl)cyclobutyl)methyl)pyridin-2-yl)-1H-indazol-1-yl)pyridin-2-yl)methanol]",≤ 1000 nM,≤ 100 nM,–
"N[C@@H](c1cccc(-c2ccc3cnn(-c4cccc(CO)n4)c3c2)n1)C1CC(CO)C1 (stereo partly drawn) [Compound 2, (R)-(6-(6-(6-(amino(3-(hydroxymethyl)cyclobutyl)methyl)pyridin-2-yl)-1H-indazol-1-yl)pyridin-2-yl)methanol]",≤ 1000 nM,≤ 100 nM,–
"N[C@H](c1cccc(-c2ccc3cnn(-c4cccc(CO)n4)c3c2)n1)C1CC(CO)C1 (stereo partly drawn) [Compound 3, (S)-(6-(6-(6-(amino(3-(hydroxymethyl)cyclobutyl)methyl)pyridin-2-yl)-1H-indazol-1-yl)pyridin-2-yl)methanol]",–,–,≤ 1000 nM
"N[C@@H](c1cccc(-c2ccc3cnn(-c4cccc(CO)n4)c3c2)n1)[C@H]1C[C@@H](O)C1 [Compound 5, (cis)-3-((R)-amino(6-(1-(6-(hydroxymethyl)pyridin-2-yl)-1H-indazol-6-yl)pyridin-2-yl)methyl)cyclobutan-1-ol hydrochloride]",≤ 1000 nM,≤ 100 nM,–
"N[C@@H](c1cccc(-c2ccc3cnn(-c4cccc(CO)n4)c3c2)n1)[C@H]1C[C@H](O)C1 [Compound 7, trans-3-((R)-amino(6-(1-(6-(hydroxymethyl)pyridin-2-yl)-1H-indazol-6-yl)pyridin-2-yl)methyl)cyclobutanol]",≤ 1000 nM,≤ 100 nM,–
"N[C@H](c1cccc(-c2ccc3cnn(-c4nccc(CO)n4)c3c2)n1)[C@H]1C[C@@H](O)C1 [Compound 8, (1R,3S)-3-((S)-amino(6-(1-(4-(hydroxymethyl)pyrimidin-2-yl)-1H-indazol-6-yl)pyridin-2-yl)methyl)cyclobutanol]",≤ 1000 nM,≤ 100 nM,–
"N[C@H](c1cccc(-c2ccc3cnn(-c4cncc(CO)n4)c3c2)n1)[C@H]1C[C@@H](O)C1 [Compound 9, cis 3-((S)-amino(6-(1-(6-(hydroxymethyl)pyrazin-2-yl)-1H-indazol-6-yl)pyridin-2-yl)methyl)cyclobutanol]",≤ 1000 nM,≤ 100 nM,–
"N[C@H](c1cccc(-c2ccc3cnn(-c4cccc(C(F)(F)F)n4)c3c2)n1)[C@H]1C[C@@H](O)C1 [Compound 10, (1R,3S)-3-((S)-amino(6-(1-(6-(trifluoromethyl)pyridin-2-yl)-1H-indazol-6-yl)pyridin-2-yl)methyl)cyclobutanol]",≤ 1000 nM,≤ 100 nM,–
"N[C@H](c1cccc(-c2ccc3cnn(-c4nccc(C(F)(F)F)n4)c3c2)n1)[C@H]1C[C@@H](O)C1 [Compound 13, (1R,3s)-3-((S)-amino(6-(1-(4-(trifluoromethyl)pyrimidin-2-yl)-1H-indazol-6-yl)pyridin-2-yl)methyl)cyclobutanol]",≤ 1000 nM,≤ 100 nM,–
"CCc1cncc(-n2ncc3ccc(-c4cccc([C@@H](N)[C@H]5C[C@@H](O)C5)n4)cc32)n1 [Compound 15, (1R,3s)-3-((S)-amino(6-(1-(6-ethylpyrazin-2-yl)-1H-indazol-6-yl)pyridin-2-yl)methyl)cyclobutanol]",≤ 1000 nM,≤ 100 nM,–
"N[C@H](c1cncc(-c2ccc3cnn(-c4cccc(CF)n4)c3c2)n1)[C@H]1C[C@@H](O)C1 [Compound 18, cis-3-((S)-amino(6-(1-(6-(fluoromethyl)pyridin-2-yl)-1H-indazol-6-yl)pyrazin-2-yl)methyl)cyclobutanol]",–,100 to 1000 nM,–
"N[C@H](c1cncc(-c2ccc3cnn(-c4cccc(C(F)(F)F)n4)c3c2)n1)[C@H]1C[C@@H](O)C1 [Compound 19, cis-3-((S)-amino(6-(1-(6-(trifluoromethyl)pyridin-2-yl)-1H-indazol-6-yl)pyrazin-2-yl)methyl)cyclobutanol]",–,≤ 100 nM,–
"N[C@@H](c1cccc(-c2ccc3cnn(-c4cccc(CO)n4)c3c2)n1)C1(F)CCC1 [Compound 31, (S)-(6-(6-(6-(amino(1-fluorocyclobutyl)methyl)pyridin-2-yl)-1H-indazol-1-yl)pyridin-2-yl)methanol]",–,≤ 100 nM,–
"N[C@H](c1cccc(-c2ccc3cnn(-c4cccc(CO)n4)c3c2)n1)C1(F)CCC1 [Compound 35c, (R)-(6-(6-(6-(amino(1-fluorocyclobutyl)methyl)pyridin-2-yl)-1H-indazol-1-yl)pyridin-2-yl) methanol]",1000 to 10000 nM,–,–
"N[C@@H](c1cccc(-c2ccc3cnn(-c4cccc(CO)n4)c3c2)n1)C1(F)CCC1 [Compound 35d, (S)-(6-(6-(6-(amino(1-fluorocyclobutyl)methyl)pyridin-2-yl)-1H-indazol-1-yl)pyridin-2-yl) methanol]",≤ 1000 nM,–,–
"CO[C@H]1C[C@H]([C@H](N)c2cccc(-c3ccc4cnn(-c5cccc(C(F)F)n5)c4c3)n2)C1 [Compound 35j, (S)-(6-(1-(6-(difluoromethyl)pyridin-2-yl)-1H-indazol-6-yl)pyridin-2-yl)((1R,3S)-3-methoxycyclobutyl)methanamine]",≤ 1000 nM,–,–
"CC1([C@H](N)c2cccc(-c3ccc4cnn(-c5cccc(CF)n5)c4c3)n2)CCC1 [Compound 35k, (S)-(6-(1-(6-(fluoromethyl)pyridin-2-yl)-1H-indazol-6-yl)pyridin-2-yl)(1-methylcyclobutyl)methanamine]",1000 to 10000 nM,–,–
"N#CC1CC([C@H](N)c2cccc(-c3ccc4cnn(-c5cccc(CF)n5)c4c3)n2)C1 (stereo partly drawn) [Compound 35l, (S)-3-(amino(6-(1-(6-(fluoromethyl)pyridin-2-yl)-1H-indazol-6-yl)pyridin-2-yl)methyl)cyclo butane-1-carbonitrile]",≤ 1000 nM,–,–

# The remaining lines, values ahead:
"EC50 (A549 cells; Homo sapiens, A549, A549 cells)",IC50 (IRAK4),EC50 (A549 cells; A549 cells),SMILES
≤ 1000 nM,≤ 100 nM,–,"NC(c1cccc(-c2ccc3cnn(-c4cccc(CO)n4)c3c2)n1)C1CCC(O)C1 (single isomer, unassigned) [Compound 21, 3-(amino(6-(1-(6-(hydroxymethyl)pyridin-2-yl)-1H-indazol-6-yl)pyridin-2-yl)methyl)cyclopentanol-A]"
–,≤ 100 nM,≤ 1000 nM,"NC(c1cccc(-c2ccc3cnn(-c4cccc(CO)n4)c3c2)n1)C1CCC(O)C1 (single isomer, unassigned) [Compound 23, 3-(amino(6-(1-(6-(hydroxymethyl)pyridin-2-yl)-1H-indazol-6-yl)pyridin-2-yl)methyl)cyclopentanol-C]"
≤ 1000 nM,≤ 100 nM,–,"N[C@H](c1cccc(-c2ccc3cnn(-c4cccc(CO)n4)c3c2)n1)[C@H]1C[C@@H](O)C1 [Compound 4, cis-3-((S)-amino(6-(1-(6-(hydroxymethyl)pyridin-2-yl)-1H-indazol-6-yl)pyridin-2-yl)methyl)cyclobutanol]"
≤ 1000 nM,≤ 100 nM,–,"N[C@H](c1cccc(-c2ccc3cnn(-c4cccc(CO)n4)c3c2)n1)[C@H]1C[C@H](O)C1 [Compound 6, trans-3-((S)-amino(6-(1-(6-(hydroxymethyl)pyridin-2-yl)-1H-indazol-6-yl)pyridin-2-yl)methyl)cyclobutanol]"
≤ 1000 nM,100 to 1000 nM,–,"CCc1ccnc(-n2ncc3ccc(-c4cccc([C@@H](N)[C@H]5C[C@@H](O)C5)n4)cc32)n1 [Compound 11, (1R,3S)-3-((S)-amino(6-(1-(4-ethylpyrimidin-2-yl)-1H-indazol-6-yl)pyridin-2-yl)methyl)cyclobutanol]"
1000 to 10000 nM,≤ 100 nM,–,"CCc1cccc(-n2ncc3ccc(-c4cccc([C@@H](N)[C@H]5C[C@@H](O)C5)n4)cc32)n1 [Compound 12, (1R,3s)-3-((S)-amino(6-(1-(6-ethylpyridin-2-yl)-1H-indazol-6-yl)pyridin-2-yl)methyl)cyclobutanol]"
≤ 1000 nM,≤ 100 nM,–,"N[C@H](c1cccc(-c2ccc3cnn(-c4cccc(C(F)F)n4)c3c2)n1)[C@H]1C[C@@H](O)C1 [Compound 14, cis-3-((S)-amino(6-(1-(6-(difluoromethyl)pyridin-2-yl)-1H-indazol-6-yl)pyridin-2-yl)methyl)cyclobutanol]"
–,≤ 100 nM,–,"N#CC1(c2cccc(-n3ncc4ccc(-c5cccc([C@@H](N)[C@H]6C[C@@H](O)C6)n5)cc43)n2)CC1 [Compound 20, 1-(6-(6-(6-((S)-amino(cis-3-hydroxycyclobutyl)methyl)pyridin-2-yl)-1H-indazol-1-yl)pyridin-2-yl)cyclopropanecarbonitrile]"
–,≤ 100 nM,–,"N[C@H](c1cccc(-c2ccc3cnn(-c4cccc(CO)n4)c3c2)n1)C1(F)CCC1 [Compound 32, (R)-(6-(6-(6-(amino(1-fluorocyclobutyl)methyl)pyridin-2-yl)-1H-indazol-1-yl)pyridin-2-yl)methanol]"
